For one data set, the system named is carageenin-induced edema. To be noted: rat paw; compared to parent compound unsubstituted in the para position of the phenyl ring; Curuzu et al. 1991; cited from earlier work.
The next data set has as its target T1, recombinant human MIF (Homo sapiens, UniProt P14174).
T1 construct: made in house; host or cells: E. coli
T1 sequence (P14174 2-115 limits assumed): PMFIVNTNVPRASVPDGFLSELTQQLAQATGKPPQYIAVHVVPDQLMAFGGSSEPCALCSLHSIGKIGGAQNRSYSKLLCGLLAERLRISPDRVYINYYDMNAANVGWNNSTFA
The data set is described as follows: MIF dopachrome tautomerase assay. The data set is classed as biochemical. To be noted: dose-dependent inhibition. An excerpt:
The compounds of Formula I or II are identified as MIF inhibitors because they inhibit MIF enzymatic activity in vitro. […] This reaction predicts therapeutic MIF inhibitors (see U.S. Pat. No. 6,420,188 and U.S. Pat. No. 6,599,938, the disclosures of which are incorporated herein by reference in their entirety). Inhibition of MIF tautomerase activity is predictive of inhibition of MIF biological activity.
A method for performing an assay for MIF dopachrome tautomerase activity begins with the preparation and oxidation of a DOPA-related substrate precursor, such as L-3,4-dihydroxyphenylalanine methyl ester. […] The absorbance is measured at about 475 nm (or 550 nm for substrate concentrations in excess […]). A test compound may be included in the assay solution such that the effect of the test compound on MIF tautomerase activity (i.e., as an inhibitor) may be measured by noting the change in kinetics of substrate tautomerization compared to control assays performed in the absence of the test inhibitor compound. […]
L-3,4-dihydroxyphenylalanine methyl ester (e.g., Sigma D-1507) is a dopachrome substrate precursor, and is prepared as a 4 mM solution in dd H2O Sodium periodate is prepared as an 8 mM solution in dd H2O. […] Inhibition of MIF tautomerase activity by the test compounds is determined by inhibition of the de-colorization of the assay mixture, often at the 20 sec time point. […]

`O=C(O)CC1CC(c2ccc(O)cc2)=NO1` (centres unmarked) [3-(4-hydroxyphenyl)-4,5-dihydro-5-isoxazolineacetic acid]: the anti-inflammatory activity result in the data set on carageenin-induced edema was “devoid of anti-inflammatory activity”.
Consider `COc1ccc(C2=NOC(CC(=O)O)C2)cc1` (centres unmarked) [3-(4-methoxyphenyl)-4,5-dihydro-5-isoxazolineacetic acid], for which the anti-inflammatory activity entry in the data set on carageenin-induced edema was “dramatically reduced”.
As for `O=C(CC1CC(c2ccc(O)cc2)=NO1)N1CCCC1` (centres unmarked) [Compound 68], the IC50 (in general, the point on the concentration scale where inhibition reaches its midpoint) on recombinant human MIF is about 10 µM.
The same measure, in the same setting: then `O=C(CC1CC(c2ccc(O)cc2)=NO1)N1CCOCC1` (centres unmarked) [Compound 69], with about 10 µM.
In the case of `CCOC(=O)C(C)CC1CC(c2ccc(O)cc2)=NO1` (centres unmarked) [Compound 32], the melting point – broadly, the temperature of the solid-liquid transition – was in the range of 192 to 194 °C.

Source of the values: patent US20050250826A1, “Compounds, compositions, processes of making, and methods of use related to inhibiting macrophage migration inhibitory factor” (priority 2004, published 2005).
